The values that follow come from US7563791B2, “Pyrrolotriazine derivatives useful for treating hyper-proliferative disorders and diseases associated with angiogenesis” (Bayer Pharmaceuticals Corporation, priority 2004, dated 2009).

Bounds are passed on as bounds.

Holding throughout (type): cell-based
The test system of test [1] is VEGFR stimulated HUVEC proliferation. Briefly: BRDU growth factor stimulated proliferation of HUVEC (VEGF stimulation). The note with it: Homo sapiens, 72 h, 80 ng/ml VEGF, 3 days, BrdU incorporation. On the procedure:
(§1) BRDU Growth Factor Stimulated Proliferation of HUVEC
(§2) Exponentially growing human umbilical vein endothelial cells (HUVEC; Cat# CC-2519A, Cambrex, Walkersville, Md.) were seeded at two thousand cells/well into Collagen IV-coated 96 well plates (Cat#35-4429, Becton Dickinson, Bedford, Mass.) in assay media containing RPMI-1640 (Cat#11875-093, Gibco, Carlsbad, Calif.), 0.5% charcoal-stripped serum (Cat# SH30068.03, HyClone, Logan, Utah), and 1% N-2 supplement (Cat#17502-048, Gibco, Carlsbad, Calif.). Fours hours after incubating the plates at 37° C. in 5% CO2, the cells were treated with different concentrations of compound (diluted in assay media with a final DMSO concentration=0.1%) and then were immediately stimulated with 80 ng/ml of vascular endothelial growth factor (VEGF, Cat#100-20, PeproTech, Rocky Hill, N.J.) or 1.5 ng/ml of basic fibroblast growth factor (bFGF, Catt#100-18B, PeproTech, Rocky Hill, N.J.). Treated cells were incubated for 3 days at 37° C. in 5% CO2. DNA synthesis was measured via the incorporation of bromodeoxyuridine (BrdU) into newly synthesized DNA using the Amersham Cell Proliferation BioTrack ELISA system (Cat# RPN250, Amersham, Piscataway, N.J.). Diluted BrdU solution (20 μl of stock BrdU diluted 1:20 fold into assay media) was added to each well and incubation proceeded for 6 hours at 37° C. in 5% CO2. The media was removed and the cells were fixed according to the specifications of the Amersham assay kit for 30 minutes at room temperature. After removing the fixative, blocking buffer (supplied by Amersham kit; 200 μl/well) was added and the plates were stored at 4° C. overnight. The blocking buffer was aspirated and peroxidase-labeled anti-BrdU antibody (supplied by Amersham kit; 100 μl/well) was added and incubated for 3 hours at room temperature. The plates were washed three times with wash buffer (supplied by Amersham kit; 300 μl/well/wash). Immediately following the washes, 100 μl of the TMB-substrate was dispensed into each well and the plates were further incubated for 30 minutes at room temperature. The reaction was terminated by the addition of 25 μl of 1M H2SO4. Plates were read immediately at 450 nm using a SpectraMAX 250 spectrophotometer plate reader (Molecular Devices, Sunnyvale, Calif.). The software utilized was SoftMAX pro v.2.4.1.

Test [2] concerns FGFR stimulated HUVEC proliferation. Put plainly: BRDU growth factor stimulated proliferation of HUVEC (bFGF stimulation). The note with it: Homo sapiens, 72 h, 1.5 ng/ml bFGF, 3 days, BrdU incorporation. On the procedure: as §1, §2
Another test relates to HCT116 cells. Put plainly: Tumor cell proliferation (Alamar Blue), HCT116. The conditions noted are these: Homo sapiens, HCT-116, 72 h. In outline: (§3)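 Cells seeded at 3.0×10^3/well in RPMI with 10% FBS for 16 h, then treated with compound (added medium held 40 μM to 18 nM compound, 0.4% DMSO) for 72 h at 37 °C, 5% CO2. Viability by Alamar Blue, 3 h, fluorescence 544/590 nm. IC50 by linear regression of log concentration versus percent inhibition.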

The test system of the next test is MDA-MB-231 cells. Put plainly: Tumor cell proliferation (Alamar Blue), MDA-MB-231. The note with it: Homo sapiens, MDA-MB-231, 72 h. An outline of the steps: as §3

With `N#Cc1cn2ncnc(N)c2c1-c1ccc(NC(=O)Nc2cc(F)cc(C(F)(F)F)c2)cc1` [Example 103, N-[4-(4-amino-6-cyanopyrrolo[2,1-f][1,2,4]triazin-5-yl)phenyl]-N′-[3-fluoro-5-(trifluoromethyl)phenyl]urea], the IC50 in test [1] is 10 to 100 nM; in test [2], under 100 nM; in the test with HCT116 cells (bounds given in μM) it was 5 to 10 µM; with MDA-MB-231 cells (bounds given in μM) it was 5 to 10 µM.
On to `Nc1ncnn2cc(-c3cnco3)c(-c3ccc(NC(=O)Nc4cc(C(F)(F)F)ccc4F)cc3)c12` [Example 155, N-{4-[4-amino-6-(1,3-oxazol-5-yl)pyrrolo[2,1-f][1,2,4]triazin-5-yl]phenyl}-N′-[2-fluoro-5-(trifluoromethyl)phenyl]urea], for which the half-inhibitory concentration (IC50) in test [1] was 10 to 100 nM; in test [2], 100 to 500 nM; in the test on HCT116 cells, under 0.5 µM; in the test on MDA-MB-231 cells, under 0.5 µM.
On to `COCCOCc1cn2ncnc(N)c2c1-c1ccc(NC(=O)Nc2cc(C(F)(F)F)ccc2F)cc1` [Example 157, N-(4-{4-amino-6-[(2-methoxyethoxy)methyl]pyrrolo[2,1-f][1,2,4]triazin-5-yl}phenyl)-N′-[2-fluoro-5-(trifluoromethyl)phenyl]urea], for which the IC50 in test [1] lay within 10 to 100 nM; in test [2] it was 100 to 500 nM; in the test with HCT116 cells (bounds given in μM) it was 1.5 to 5 µM; in the test on MDA-MB-231 cells (bounds given in μM), 1.5 to 5 µM.
For `Nc1ncnn2cc(-c3cnco3)c(-c3ccc(NC(=O)Nc4cc(F)cc(C(F)(F)F)c4)cc3)c12` [Example 159, N-{4-[4-amino-6-(1,3-oxazol-5-yl)pyrrolo[2,1-f][1,2,4]triazin-5-yl]phenyl}-N′-[3-fluoro-5-(trifluoromethyl)phenyl]urea], the concentration for half-maximal inhibition (IC50) in test [1] was 10 to 100 nM; in test [2], 100 to 500 nM; with HCT116 cells, over 0.5 µM; in the test on HCT116 cells (bounds given in μM), under 1.5 µM; with MDA-MB-231 cells, over 0.5 µM; in the test with MDA-MB-231 cells (bounds given in μM), under 1.5 µM.
With `Nc1ncnn2cc(-c3cnco3)c(-c3ccc(NC(=O)Nc4ccc(F)c(C(F)(F)F)c4)cc3)c12` [Example 162, N-{4-[4-amino-6-(1,3-oxazol-5-yl)pyrrolo[2,1-f][1,2,4]triazin-5-yl]phenyl}-N′-[4-fluoro-3-(trifluoromethyl)phenyl]urea], the IC50 in test [1] is 10 to 100 nM; in test [2], 100 to 500 nM; with HCT116 cells, over 0.5 µM; with HCT116 cells (bounds given in μM), under 1.5 µM; in the test with MDA-MB-231 cells (bounds given in μM), 1.5 to 5 µM.
With `CCOCc1cn2ncnc(N)c2c1-c1ccc(NC(=O)Nc2cc(C(F)(F)F)ccn2)cc1` [Example 218, N-{4-[4-amino-6-(ethoxymethyl)pyrrolo[2,1-f][1,2,4]triazin-5-yl]phenyl}-N′-[4-(trifluoromethyl)pyridine-2-yl]urea], the half-maximal inhibitory concentration (IC50) in test [1] was under 10 nM; in test [2], 100 to 500 nM; in the test with HCT116 cells (bounds given in μM) it was 5 to 10 µM; with MDA-MB-231 cells (bounds given in μM), 5 to 10 µM.
On to `CC(=O)c1cn2ncnc(N)c2c1-c1ccc(NC(=O)Nc2cc(C(F)(F)F)ccc2F)cc1` [Example 223, N-[4-(6-acetyl-4-aminopyrrolo[2,1-f][1,2,4]triazin-5-yl)phenyl]-N′-[2-fluoro-5-(trifluoromethyl)phenyl]urea], for which the IC50 in test [1] was 10 to 100 nM; in test [2] it was under 100 nM; in the test on HCT116 cells it was over 0.5 µM; in the test on HCT116 cells (bounds given in μM), under 1.5 µM; with MDA-MB-231 cells, over 0.5 µM; in the test with MDA-MB-231 cells (bounds given in μM) it was under 1.5 µM.
Consider `N#CCc1cn2ncnc(N)c2c1-c1ccc(NC(=O)Nc2cc(C(F)(F)F)ccn2)cc1` [Example 226, N-{4-[4-amino-6-(cyanomethyl)pyrrolo[2,1-f][1,2,4]triazin-5-yl]phenyl}-N′-[4-(trifluoromethyl)pyridin-2-yl]urea], for which the IC50 in test [1] was under 10 nM; in test [2], 100 to 500 nM; with HCT116 cells (bounds given in μM), 1.5 to 5 µM; in the test with MDA-MB-231 cells (bounds given in μM) it was 1.5 to 5 µM.
For `CC(=O)c1cn2ncnc(N)c2c1-c1ccc(NC(=O)Nc2cc(C(F)(F)F)ccn2)cc1` [Example 233, N-[4-(6-acetyl-4-aminopyrrolo[2,1-f][1,2,4]triazin-5-yl)phenyl]-N′-[4-(trifluoromethyl)pyridin-2-yl]urea], the IC50 in test [1] was in the range of 10 to 100 nM; in test [2], 100 to 500 nM; in the test with HCT116 cells (bounds given in μM) it was 1.5 to 5 µM; with MDA-MB-231 cells (bounds given in μM) it was 1.5 to 5 µM.
